Test results published in patent US4086347A, “9-[3-(4-Phenoxymethylpiperidino)-propyl]-adenines” (Boehringer Mannheim GmbH, priority 1975, dated 1978).

How the values were obtained:
[1] = tested on: passive cutaneous anaphylactic reaction in rats produced by injection of serum containing reaginic antibodies to egg albumin; assay: Inhibition of passive cutaneous anaphylactic (PCA) reaction in rats induced by reaginic antibodies; type: in vivo, rat; conditions: intravenously immediately before antigen
Experimental: Diethylcarbamazin, i.e., 1-diethylcarbamoyl-4-methylpiperazine was used as a comparison compound. Specifically, tests were run as follows:
Serum containing reaginic (IgE-like) antibody to egg albumin was prepared by injecting rats intramuscularly with 0.1 ml of a solution of the antigen (10 mg/ml) in saline together with 0.5 ml of Bordetella pertussis vaccine (Behring; 2 × 10^10 organisms/ml). 9-14 Days later the animals were bled from the abdominal aorta; the serum was pooled and stored at -20° C until required. The titer of the serum, i.e., the highest dilution inducing passive cutaneous anaphylaxis (PCA) in the rat following a 48-hour latent period, was between 1:8 and 1:32. For use in these experiments the serum was diluted 1:24.
The animals were anesthetized with 2,2-dichloro-1,1-difluoroethyl-methyl ether, sold under the trademark Penthrane, and were sensitized by injecting 0.1 ml of the antiserum into the shaved abdominal flanks. After 48 hours for reaginic PCA, the animals were given an intravenous injection of 1 ml of saline solution containing 0.5% by weight of egg albumin and 0.25% by weight of Evans Blue.
After having killed and exsanguinated the animals, the size in square millimeters and the intensity, in arbitary scores, of the resulting blue spot were determined. The product of these two parameters was used to determine the degree of the reaction and the degree of reaction with no active material was taken as the standard against which to measure % inhibition of the anaphylactic reaction.
6 Animals were used per dose level and for control.
The test material was injected intravenously immediately before the antigen, using a solution in water containing 0.5% HCl and 2% of dimethylformamide. For comparative purposes there was also tested diethylcarbamoyl-4-methylpiperazine sold under the tradename Diethylcarbamazin. The volumes of the injections were varied to give the indicated dosage of active material. The results obtained were as follows:
(Ovalbumin 2 × cryst. and Bord. pertussis 2 × 10^10) Active material applied intravenously immediately before antigen

[2] = tested on: blood pressure; assay: Blood pressure reduction in awake rats with arterial high pressure (sodium chloride / 11-deoxycorticosteroneacetate); type: in vivo, rat; conditions: 4 hours after application, median
Experimental: In order to establish the effectiveness of the novel products of the invention as agents for reducing blood pressure, a series of tests as follows were carried out.
The following were the test methods used:
The test animals were rats into which arterial catheters had been implanted in a sterile operation via the arteria femoralis into the aorta. It was possible to measure the animals' blood pressure in the awake state directly in the blood with a transducer (Statham Transducer Type TP 23 D 6) via a carrier frequency measuring bridge. The animals were treated by administration of 10% common salt (sodium chloride) in their feed and, starting on the sixth week of their life, two injections per week of 5 mg at a time of 11-deoxycorticosteroneacetate per animal and thus developed an arterial high pressure in the median with values of […]. The test compounds were administered to the animals as follows: After the blood pressure control values had been determined, the animals received the test compound perorally suspended in 10 ml of 1% methyl cellulose solution in the indicated dosage and measurements were taken 4 hours after oral application of the substance.
The values set forth in the Table represent in each case the median of at least 7 individual measurements of blood pressure depression (in mm Hg) per applied substance.

| Structure (SMILES) | Maximum Blood Pressure Reduction ([2]; 25 mg/kg perorally) [mm Hg] | also measured |
| --- | --- | --- |
| CCN(CC)C(=O)N1CCN(C)CC1 [Diethylcarbamazin, 1-diethylcarbamoyl-4-methylpiperazine, reference compound] | – | % Inhibition PCA ([1]; 60.0 mg/kg): 58% |
| Nc1ncnc2c1ncn2CCCN1CCC(COc2ccccc2)CC1 [Example 1, 9-[3-(4-Phenoxymethylpiperidino)-propyl]-adenine] | -76 ± 5 | % Inhibition PCA ([1]; 0.38 mg/kg): 27%; % Inhibition PCA ([1]; 0.75 mg/kg): 45% |
| Nc1ncnc2c1ncn2CCCN1CCC(COc2ccccc2Br)CC1 [Example 1a, 9-{3-[4-(2-bromophenoxymethyl)-piperidino]-propyl}-adenine] | -47 ± 7 | – |
| Nc1ncnc2c1ncn2CCCN1CCC(COc2ccccc2Cl)CC1 [Example 1b, 9-{3-[4-(2-chlorophenoxymethyl)-piperidino]-propy}-adenine] | -64 ± 5 | % Inhibition PCA ([1]; 0.38 mg/kg): 32% |
| Nc1ncnc2c1ncn2CCCN1CCC(COc2ccc(Cl)cc2)CC1 [Example 1d, 9-{3-[4-(4-chlorophenoxymethyl)-piperidino]-propyl}-adenine] | – | Maximum Blood Pressure Reduction ([2]; 50 mg/kg perorally): -25 ± 7 mm Hg |
| Nc1ncnc2c1ncn2CCCN1CCC(COc2ccc(F)cc2)CC1 [Example 1e, 9-{3-[4-(4-fluorophenoxymethyl)-piperidino]-propyl}-adenine] | -60 ± 7 | % Inhibition PCA ([1]; 0.38 mg/kg): 54% |
| COc1cccc(OCC2CCN(CCCn3cnc4c(N)ncnc43)CC2)c1 [Example 1g, 9-{3-[4-(3-methoxy-phenoxymethyl)-piperidino]-propyl}-adenine] | -18 ± 4 | – |
| COc1ccc(OCC2CCN(CCCn3cnc4c(N)ncnc43)CC2)cc1 [Example 1h, 9-{3-[4-(4-methoxy-phenoxymethyl)-piperidino]-propyl}-adenine] | -19 ± 3 | – |
| Cc1ccccc1OCC1CCN(CCCn2cnc3c(N)ncnc32)CC1 [Example 1i, 9-{3-[4-(2-methyl-phenoxymethyl)-piperidino]-propyl}-adenine] | -55 ± 7 | – |
| CNc1ncnc2c1ncn2CCCN1CCC(COc2ccccc2)CC1 [Example 1j, N^6-methyl-9-[3-(4-phenoxymethyl-piperidino)-propyl]-adenine] | – | % Inhibition PCA ([1]; 0.38 mg/kg): 21%; % Inhibition PCA ([1]; 0.75 mg/kg): 60% |
| CNc1ncnc2c1ncn2CCCN1CCC(COc2ccc(F)cc2)CC1 [Example 1k, N^6-methyl-9-{3-[4-(4-fluorophenoxy-methyl)-piperidino]-propyl}-adenine] | -49 ± 8 | % Inhibition PCA ([1]; 0.38 mg/kg): 21% |
| CCNc1ncnc2c1ncn2CCCN1CCC(COc2ccc(F)cc2)CC1 [Example 1m, N^6-ethyl-9-{3-[4-(4-fluorophenoxy-methyl)-piperidino]-propyl}-adenine] | -20 ± 6 | – |
| OCCNc1ncnc2c1ncn2CCCN1CCC(COc2ccccc2)CC1 [Example 1n, N^6-(2-hydroxyethyl)-9-[3-(4-phenoxy-methyl-piperidino)-propyl]-adenine] | -48 ± 5 | – |
| CCCNc1ncnc2c1ncn2CCCN1CCC(COc2ccccc2)CC1 [Example 1o, N^6-n-propyl-9-[3-(4-phenoxymethyl-piperidino)-propyl]-adenine] | -67 ± 7 | – |
| CCCNc1ncnc2c1ncn2CCCN1CCC(COc2ccc(F)cc2)CC1 [Example 1p, N^6-n-propyl-9-{3-[4-(4-fluorophenoxy-methyl)-piperidino]-propyl}-adenine] | -57 ± 8 | – |
| CN(C)c1ncnc2c1ncn2CCCN1CCC(COc2ccccc2)CC1 [Example 1q, 6-dimethylamino-9-[3-(4-phenoxymethyl-piperidino)-propyl]-purine] | -41 ± 7 | – |
| CCCCNc1ncnc2c1ncn2CCCN1CCC(COc2ccc(F)cc2)CC1 [Example 2, N^6-n-Butyl-9-{3-[4-(4-fluorophenoxymethyl)-piperidino]propyl}-adenine] | -53 ± 6 | – |
| CC(C)Nc1ncnc2c1ncn2CCCN1CCC(COc2ccccc2)CC1 [Example 2a, N^6-isopropyl-9-[3-(4-phenoxymethyl-piperidino)-propyl]-adenine] | -35 ± 9 | – |
| CCCCNc1ncnc2c1ncn2CCCN1CCC(COc2ccccc2)CC1 [Example 2b, N^6-n-butyl-9-[3-(4-phenoxymethyl-piperidino)-propyl]-adenine] | – | Maximum Blood Pressure Reduction ([2]; 50 mg/kg perorally): -35 ± 11 mm Hg |
| CC(N)(Cc1ccc(O)c(O)c1)C(=O)O (stereo not drawn) [α-Methyl-Dopa, reference compound] | – | Maximum Blood Pressure Reduction ([2]; 150 mg/kg perorally): -33 ± 5 mm Hg |
